Data from ChEMBL document CHEMBL1201862, “PubChem BioAssay data set” (2004).
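Grown in 96-well plates, cells were treated for 48 hours with each compound at five concentrations. Insufficient inhibition: endpoint recorded as highest concentration tested. GI50 = concentration required for 50% inhibition of growth.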 Calls of active or inactive are those of the source. No stated cut-off is given here; in the data, active = GI50 up to about 1.1 µM and inactive = higher.

Experiments:
Test in all cases: NCI-60 cell line screen, 48 h
[1] = test system: 786-0
[2] = test system: A498
[3] = test system: BT-549
[4] = test system: COLO 205
[5] = test system: DU-145
[6] = test system: HCC 2998
[7] = test system: HOP-62
[8] = test system: Hs-578T
[9] = test system: LOX IMVI
[10] = test system: NCI-H460
[11] = test system: OVCAR-3
[12] = test system: OVCAR-8
[13] = test system: RPMI-8226
[14] = test system: RXF 393
[15] = test system: SK-OV-3
[16] = test system: SW-620
[17] = test system: TK-10
[18] = test system: U-251
[19] = test system: UACC-257
[20] = test system: UACC-62

Measured: GI50

Cc1ccc(C)n1-n1c(-c2ccccc2)n[nH]c1=O
inactive: [1] > 100 µM | [2] > 100 µM | [3] > 100 µM | [4] > 100 µM | [5] > 100 µM | [6] 87.7 µM | [7] > 100 µM | [8] > 100 µM | [9] > 100 µM | [10] > 100 µM | [11] > 100 µM | [12] > 100 µM | [13] > 100 µM | [14] > 100 µM | [15] > 100 µM | [16] > 100 µM | [17] > 100 µM | [18] > 100 µM | [19] > 100 µM | [20] > 100 µM

COC(=O)c1ccc2c(c1)CC1(C2)Cc2cc3c(c(C(=O)OC)c2C1)CCCC3 (stereo not given)
inactive: [1] 64.1 µM | [2] 32.5 µM | [3] > 10 µM | [4] 49.4 µM | [5] > 100 µM | [6] 86.5 µM | [7] > 100 µM | [8] > 100 µM | [9] 51.4 µM | [10] 96.6 µM | [11] 18.3 µM | [12] > 100 µM | [13] 38.4 µM | [14] > 100 µM | [15] 41.7 µM | [16] > 100 µM | [17] 72.1 µM | [18] 61.7 µM | [19] 48.4 µM | [20] 37.1 µM

Nc1nc(N)c(N=O)c(OCC2CCCCC2)n1
inactive: [1] 11.6 µM | [2] 18.1 µM | [3] 7.82 µM | [4] 12.3 µM | [5] 7.45 µM | [6] 14.9 µM | [7] 14.6 µM | [8] 6.73 µM | [9] 5.53 µM | [10] 6.17 µM | [11] 8.47 µM | [12] 15 µM | [13] 6.52 µM | [14] 7.1 µM | [15] 19 µM | [16] 24 µM | [17] 6.64 µM | [18] 15.7 µM | [19] 9.02 µM | [20] 6.98 µM

O=C(Nc1nc(C23CC4CC(CC(C4)C2)C3)cs1)c1cc2cc(Br)cc(Br)c2oc1=O
inactive: [1] 32.9 µM | [2] > 100 µM | [3] > 100 µM | [4] > 100 µM | [5] 65.5 µM | [6] 75.7 µM | [7] 70.8 µM | [8] 27.4 µM | [9] > 100 µM | [10] 37 µM | [11] 61.4 µM | [12] 34.4 µM | [13] 67.9 µM | [14] 31 µM | [15] > 100 µM | [16] 43.2 µM | [17] > 100 µM | [18] 20.3 µM | [19] > 100 µM | [20] > 100 µM
